Holding throughout (assay type): cell-based
Experiment [1] concerns Cryptococcus neoformans ATCC 14115. The experiment is described as follows: antifungal activity, disc agar assay (Minimum Inhibitory Concentration), Cryptococcus neoformans. Here is the method:
(§1) The compounds of the invention are tested to determine their antifungal activity. The assay procedure is as follows:
(§2) The compounds to be tested are solubilized or suspended in appropriate reagent and further diluted in sterile distilled water to provide a range of concentrations from 200 to 10 μg/ml. 20 Lambda portions are placed on sterile dried 1/4 inch paper discs and allowed to dry for 20-30 minutes. Agar plates with a 10 ml base layer are seeded with the fungi in a 4 ml seed layer and allowed to solidify. The impregnated discs are then placed on the seeded agar surface and incubated for the time required for the particular culture.
(§3) The representative fungi are:
(§4) All are human pathogens; the first four cause serious systemic mycotic infections as well as local. The trychophyton culture is mainly a dermatophyte.

Experiment [2] relates to Histoplasma capsulatum Yeast Phase ATCC 11407. In words: microbe, parasite or virus in culture. The note with it: read-out: Minimum Inhibitory Concentration.
The subject of experiment [3] is Blastomyces dermatitidis Yeast Phase ATCC 28839. In words: antifungal activity, disc agar assay (Minimum Inhibitory Concentration), Blastomyces dermatitidis yeast phase. The note with it: read-out: Minimum Inhibitory Concentration. Here is the method: as §1, §2, §3
Blastomyces dermatitidis
as §4

For experiment [4], the system named is Candida albicans ATCC 10231. In words: antifungal activity, disc agar assay (Minimum Inhibitory Concentration), Candida albicans. How it is done: as §1, §2, §3
Candida albicans ATCC 10231
as §4

The test system of experiment [5] is Trichophyton mentagrophytes ATCC 9533. In words: antifungal activity, disc agar assay (Minimum Inhibitory Concentration), Trichophyton mentagrophytes. How it is done:
as §1, §2, §3
Trichophyton mentagrophytes
as §4

Setting [6] is: ATCC14115, Cryptococcus Neoformans ATCC 14115, read-out: Minimum Inhibitory Concentration.
Where [7] appears, read: Blastomyces Dermatitidis Yeast Phase ATCC 28839.
Setting [8] is: ATCC10231, Candida Albicans ATCC 10231, read-out: Minimum Inhibitory Concentration.
[9] abbreviates: ATCC9533, Trichophyton Mentagrophytes ATCC 9533, read-out: Minimum Inhibitory Concentration.

In brackets after ≈: the same amount, converted by molar mass. Like-named read-outs stand apart in the source and are kept apart here.

These results are taken from patent publication US4719302A (priority 1987, dated 1988).

Turning to `CCOC(=O)c1c[nH]c2c(cc(F)c3c2c(=O)ccn3CC)c1=O` [Example 4, 7-Ethyl-6-fluoro-1,4,7,10-tetrahydro-4,10-dioxo-1,7-phenanthroline-3-carboxylic acid ethyl ester], the MIC in experiment [1] (Cryptococcus neoformans, ATCC14115, read-out: Minimum Inhibitory Concentration) was greater than 256 µg/mL; in experiment [2], greater than 256 µg/mL; in experiment [3], greater than 256 µg/mL; in experiment [4] (Candida albicans, ATCC10231, read-out: Minimum Inhibitory Concentration) it was greater than 256 µg/mL; in experiment [5] (Trichophyton mentagrophytes, ATCC9533, read-out: Minimum Inhibitory Concentration) it was greater than 256 µg/mL.

For the compound `CCn1cc(C(=O)O)c(=O)c2c1c(F)cc1c(=O)c(C(=O)O)cn(CC)c12` [Example 3, 1,7-Diethyl-6-fluoro-1,4,7,10-tetrahydro-4,10-dioxo-1,7-phenanthroline-3,9-dicarboxylic acid], the MIC in experiment [1] (setting [6]) is greater than 64 µg/mL; in experiment [2], 64 µg/mL (≈ 171 µM); in experiment [3] (setting [7]), 64 µg/mL (≈ 171 µM); in experiment [4] (setting [8]), greater than 64 µg/mL; in experiment [5] (setting [9]) it was greater than 64 µg/mL.

As for `CCOC(=O)c1c[nH]c2c(cc(F)c3c2c(=O)c(C(=O)O)cn3CC)c1=O` [Example 5, 7-Ethyl-6-fluoro-1,4,7,10-tetrahydro-4,10-dioxo-1,7-phenanthroline-3,9-dicarboxylic acid 3-ethyl ester], the MIC in experiment [1] (setting [6]), in experiment [2], in experiment [3] (setting [7]), in experiment [4] (setting [8]) and in experiment [5] (setting [9]) was greater than 256 µg/mL each time.

Turning to `CCOC(=O)c1c[nH]c2c(F)cc3c(=O)c(C(=O)O)cn(CC)c3c2c1=O` [Example 1, 1-Ethyl-6-fluoro-1,4,7,10-tetrahydro-4,10-dioxo-1,7-phenanthroline-3,9-dicarboxylic acid 9-ethyl ester], the MIC in experiment [1] (setting [6]) was determined as 64 µg/mL (≈ 171 µM); in experiment [2], 32 µg/mL (≈ 85.5 µM); in experiment [3] (setting [7]), 32 µg/mL (≈ 85.5 µM); in experiment [4] (setting [8]) it was 32 µg/mL (≈ 85.5 µM); in experiment [5] (setting [9]) it was 64 µg/mL (≈ 171 µM).

With `CCOC(=O)c1cn(CC)c2c(cc(F)c3c2c(=O)c(C(=O)OCC)cn3CC)c1=O` [Example 2, 1,7-Diethyl-6-fluoro-1,4,7,10-tetrahydro-4,10-dioxo-1,7-phenanthroline-3,9-dicarboxylic acid diethyl ester], the MIC in experiment [1] (setting [6]) was greater than 64 µg/mL; in experiment [2], 64 µg/mL (≈ 149 µM); in experiment [3] (setting [7]) it was 64 µg/mL (≈ 149 µM); in experiment [4] (setting [8]) it was greater than 64 µg/mL; in experiment [5] (setting [9]), greater than 64 µg/mL.

As for `CCOC(=O)c1c[nH]c2c(cc(F)c3c2c(=O)c(C(=O)OCC)cn3CC)c1=O` [Example 6, 7-Ethyl-6-fluoro-1,4,7,10-tetrahydro-4,10-dioxo-1,7-phenanthroline-3,9-dicarboxylic acid diethyl ester], the MIC in experiment [1] (setting [6]) is greater than 64 µg/mL; in experiment [2] it was 64 µg/mL (≈ 159 µM); in experiment [3] (setting [7]), 64 µg/mL (≈ 159 µM); in experiment [4] (setting [8]), greater than 64 µg/mL; in experiment [5] (setting [9]), greater than 64 µg/mL.
